# From patent publication US12268694B2, “Combination pharmaceutical agents as RSV inhibitors” (Enanta Pharmaceuticals, Inc., priority 2017, dated 2025)
# Where two headings read alike, the source gives them in different places.
# Experiments:
# [1] = test system: genotype A, "Long" strain RSV; test: RSV-A assay: CPE protection in HEp-2 cells, ATPlite readout; assay type: cell-based, human respiratory syncytial virus
# Summary of the method: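 EC50 derives from ATPlite luminescence after 5-day culture of RSV Long-infected (MOI 0.1) HEp-2 cells, seeded 8,000/well, exposed to duplicate 2-fold compound series. CC50 comes from an identical plate receiving medium instead of virus.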
# HEp-2 cells = test: Cytotoxicity in parallel to the RSV-A assay (no virus), ATPlite readout; assay type: cell-based, human
# Protocol: Following extensive parameter testing, the final assay is run as follows: HEp-2 cells are seeded into the inner 60 wells of a 96-well plate at 8,000 cells per well in a volume of 50 μL using Growth Media (DMEM without phenol red, 1% L-Glut, 1% Penn/Strep, 1% nonessential amino acids, 10% heat-inactivated FBS). 2-fold serial dilutions of control and test compounds are added to the wells in duplicate in a total volume of 25 μL. Viral stock is then added to the wells at a multiplicity of infection (MOI) of 0.1 in a volume of 25 μL, bringing the total volume of each well to 100 μL. The MOI is calculated using the PFU/mL, or TCID50 if unavailable. Each 96-well plate has a control column of 6 wells with cells and virus but no compound (negative control, max CPE), a column with cells but no compound or virus (positive control, minimum CPE), and a column with no cells or virus or compound (background plate/reagent control). The control wells with cells but no virus are given an additional 25 μL of growth media containing an equal quantity of sucrose as those wells receiving the viral stock in order to keep consistent in media and volume conditions. The outer wells of the plate are filled with 125 μL of moat media (DMEM, 1% Penn/Strep) to act as a thermal and evaporative moat around the test wells. Following a 5-day incubation period, the plates are read using ATPlite (50 μL added per well), which quantifies the amount of ATP (a measure of cell health) present in each well. Assay plates are read using the Envision luminometer. In parallel, cytotoxicity is examined on an additional 96-well plate treated in an identical manner, but substituting the 25 μL of viral stock for 25 μL of growth media. […] EC50 ranges are as follows: A <0.4 μM; B 0.4-0.8 μM; C >0.8 μM and CC50 ranges are as follows: A >50 μM; B 10-50 μM; C <10 μM.
# [2] = human respiratory syncytial virus, HEp-2, read-out: Human RSV-A (“Long” strain) EC50
Compound,"EC50 [1, 2]",CC50 (HEp-2 cells),"EC50 ([1]; HEp-2 cells, RSV-A Long strain, ATPlite readout, read-out: Human RSV-A (“Long” strain) EC50)"
O=C1Nc2ccccc2C(c2ccccc2)=NC1Nc1nnc(-c2ccc(C(F)(F)F)cn2)o1 (stereo not shown) [Example 25],> 800 nM,> 50 µM,
O=C1Nc2ccccc2C(c2ccccc2)=NC1Nc1nnc(-c2ccccc2)[nH]1 (stereo not shown) [Example 86],> 800 nM,> 50 µM,
O=C1Nc2ccccc2C(c2ccccc2)=NC1Nc1nnc(-c2ncco2)o1 (stereo not shown) [Example 70],> 800 nM,> 50 µM,
N#Cc1cc(-c2nnc(NC3N=C(c4ccccc4)c4ccccc4NC3=O)o2)ccc1F (stereo not shown) [Example 32],400 to 800 nM,> 50 µM,
COCCOc1cccc(-c2nnc(NC3N=C(c4ccccc4)c4ccccc4NC3=O)o2)c1 (stereo not shown) [Example 1],> 800 nM,> 50 µM,
O=C1Nc2ccccc2C(c2ccccc2)=NC1Nc1nnc(-c2ccc(-n3cccn3)cc2)o1 (stereo not shown) [Example 36],400 to 800 nM,10 to 50 µM,
N#Cc1ccc(-c2nnc(NC3N=C(c4ccccc4)c4ccccc4NC3=O)s2)cc1 (stereo not shown) [Example 82],400 to 800 nM,> 50 µM,
O=C1Nc2ccccc2C(c2ccccc2)=NC1Nc1nc(-c2ccccc2)ns1 (stereo not shown) [Example 87],> 800 nM,10 to 50 µM,
O=C1Nc2ccccc2C(c2ccccc2)=NC1Nc1nc2ccc(F)cc2o1 (stereo not shown) [Example 103],> 800 nM,10 to 50 µM,
O=C1Nc2ccccc2C(c2ccccc2)=NC1Nc1nc(-c2ccccc2)no1 (stereo not shown) [Example 89],,10 to 50 µM,> 800 nM
NS(=O)(=O)c1ccc(-c2nnc(NC3N=C(c4ccccc4)c4ccccc4NC3=O)o2)cc1 (stereo not shown) [Example 31],400 to 800 nM,> 50 µM,
CN(C)Cc1ccc(-c2nnc(NC3N=C(c4ccccc4)c4ccccc4NC3=O)o2)o1 (stereo not shown) [Example 73],> 800 nM,> 50 µM,
O=C1Nc2ccccc2C(c2ccccc2)=NC1Nc1nnc(-c2ccccn2)o1 (stereo not shown) [Example 11],400 to 800 nM,> 50 µM,
O=C1Nc2ccccc2C(c2ccccc2)=NC1Nc1nnc(-c2ccnc(F)c2)o1 (stereo not shown) [Example 55],< 400 nM,> 50 µM,
O=C1Nc2ccccc2C(c2ccccc2)=NC1Nc1nnc(-c2cnccn2)o1 (stereo not shown) [Example 58],> 800 nM,> 50 µM,
O=C1Nc2ccccc2C(c2ccccc2)=NC1Nc1nc2cc(F)ccc2o1 (stereo not shown) [Example 104],> 800 nM,10 to 50 µM,
CC(=O)N1CCC(c2nnc(NC3N=C(c4ccccc4)c4ccccc4NC3=O)o2)CC1 (stereo not shown) [Example 47],> 800 nM,> 50 µM,
O=C1Nc2ccccc2C(c2ccccc2)=NC1Nc1nnc(C2CCOCC2)o1 (stereo not shown) [Example 21],> 800 nM,> 50 µM,
O=C1Nc2ccccc2C(c2ccccc2)=NC1Nc1nnc(-c2ccccc2)o1 (stereo not shown) [Example 2],> 800 nM,> 50 µM,
Cn1ccnc1-c1nnc(NC2N=C(c3ccccc3)c3ccccc3NC2=O)o1 (stereo not shown) [Example 67],> 800 nM,> 50 µM,
CS(=O)(=O)c1ccc(-c2nnc(NC3N=C(c4ccccc4)c4ccccc4NC3=O)o2)cc1 (stereo not shown) [Example 27],> 800 nM,> 50 µM,
O=C1Nc2ccccc2C(c2ccccc2)=NC1Nc1nnc(-c2ccc(C(F)(F)F)cc2)o1 (stereo not shown) [Example 28],> 800 nM,> 50 µM,

Compound,"EC50 [1, 2]",CC50 (HEp-2 cells),"EC50 ([1]; HEp-2 cells, RSV-A Long strain, ATPlite readout, read-out: Human RSV-A (“Long” strain) EC50)"
O=C1Nc2ccccc2C(c2ccccc2)=NC1Nc1nnc(-c2ccc(F)cc2)s1 (stereo not shown) [Example 80],> 800 nM,> 50 µM,
O=C1Nc2ccccc2C(c2ccccc2)=NC1Nc1nnc(-c2nccs2)o1 (stereo not shown) [Example 69],> 800 nM,> 50 µM,
O=C1Nc2ccccc2C(c2ccccc2)=NC1Nc1nnc(-c2ccc(Cl)o2)o1 (stereo not shown) [Example 20],> 800 nM,> 50 µM,
O=C1Nc2ccccc2C(c2ccccc2)=NC1Nc1nnc(-c2cccc(C(F)(F)F)c2)o1 (stereo not shown) [Example 29],> 800 nM,> 50 µM,
O=C1Nc2ccccc2C(c2ccccc2)=N[C@@H]1Nc1nnc(-c2ccco2)o1 [Example 10a],400 to 800 nM,> 50 µM,
O=C1Nc2ccccc2C(c2ccccc2)=NC1Nc1nc2ccc(Cl)cc2o1 (stereo not shown) [Example 99],> 800 nM,10 to 50 µM,
O=C1Nc2ccccc2C(c2ccccc2)=NC1Nc1nnc([C@H]2COCCN2)o1 (stereo partly shown) [Example 49],> 800 nM,> 50 µM,
O=C1Nc2ccccc2C(c2ccccc2)=NC1Nc1nnc(-c2ccccc2F)o1 (stereo not shown) [Example 6],> 800 nM,> 50 µM,
O=C1Nc2ccccc2C(c2ccccc2)=NC1Nc1nnc(-c2cccc(F)c2)o1 (stereo not shown) [Example 3],> 800 nM,> 50 µM,
Cc1ccc(-c2nnc(NC3N=C(c4ccccc4)c4ccccc4NC3=O)o2)o1 (stereo not shown) [Example 71],> 800 nM,> 50 µM,
O=C1Nc2ccccc2C(c2ccccc2)=NC1Nc1nnc(-c2ccncc2)s1 (stereo not shown) [Example 83],> 800 nM,> 50 µM,
Cc1nnc(NC2N=C(c3ccccc3)c3ccccc3NC2=O)o1 (stereo not shown) [Example 18],> 800 nM,> 50 µM,
Cc1ccc2oc(NC3N=C(c4ccccc4)c4ccccc4NC3=O)nc2c1 (stereo not shown) [Example 106],> 800 nM,< 10 µM,
COCc1ccc(-c2nnc(NC3N=C(c4ccccc4)c4ccccc4NC3=O)o2)o1 (stereo not shown) [Example 72],> 800 nM,> 50 µM,
Cn1nccc1-c1nnc(NC2N=C(c3ccccc3)c3ccccc3NC2=O)o1 (stereo not shown) [Example 65],> 800 nM,> 50 µM,
COc1cc(-c2nnc(NC3N=C(c4ccccc4)c4ccccc4NC3=O)o2)ccc1F (stereo not shown) [Example 14],< 400 nM,10 to 50 µM,
O=C1Nc2ccccc2C(c2ccccc2)=NC1Nc1cc(-c2ccccc2)ncn1 (stereo not shown) [Example 92],> 800 nM,10 to 50 µM,
O=C1Nc2ccccc2C(c2ccccc2)=NC1Nc1nnc(-c2ccc(F)cc2F)o1 (stereo not shown) [Example 50],> 800 nM,> 50 µM,
O=C1Nc2ccccc2C(c2ccccc2)=NC1Nc1nnc(-c2ccc(F)cn2)o1 (stereo not shown) [Example 23],> 800 nM,> 50 µM,
O=C1Nc2ccccc2C(c2ccccc2)=NC1Nc1nnc(-c2ccc(OC(F)(F)F)cc2)o1 (stereo not shown) [Example 30],> 800 nM,> 50 µM,
Cn1cc(-c2nnc(NC3N=C(c4ccccc4)c4ccccc4NC3=O)o2)cn1 (stereo not shown) [Example 66],400 to 800 nM,> 50 µM,
O=C1Nc2ccccc2C(c2ccccc2)=NC1Nc1nnc(-c2ccc(F)nc2)o1 (stereo not shown) [Example 53],400 to 800 nM,> 50 µM,
